From paper PMC11258689, “A Snake Venom Peptide and Its Derivatives Prevent Aβ42 Aggregation and Eliminate Toxic Aβ42 Aggregates In Vitro” (ACS Chemical Neuroscience, 2024)
Non-standard residues stand in square brackets, D forms with d. Residues, ends and D or L forms follow the SMILES beside them.

What was measured:
SH-SY5Y cells = test: MTT cell viability assay, SH-SY5Y; format: cell-based, human; conditions: 20 and 40 μM peptide, overnight, n = 3
Experimental: (§1) The cell viability assay was performed using the reduction of [3-(4,5-dimethylthiazol-2-yl)-2,5-diphenyl tetrazolium bromide-MTT] (Merck, Darmstadt, Germany) to investigate the cytotoxicity of the CDPs against SH-SY5Y (human neuroblastoma) and HEK293 (human embryonic kidney) cells. Both cell lines were purchased from the Leibniz Institute DSMZ-German collection of microorganisms and cell cultures GmbH. HEK293 cells were cultivated in Dulbecco’s modified Eagle’s medium high glucose (Merck, Darmstadt, Germany) containing 2% antibiotic solution of 10 000 units Penicillin, 10 mg streptomycin/ml (Merck, Darmstadt, Germany), and 10% fetal bovine serum (Merck, Darmstadt, Germany) at 37 °C with 5% CO2. […]
(§2) According to the manufacturer’s instructions, cell viability was measured using the Cell Proliferation Kit I (Roche, Basel, Switzerland). The absorbance of the formazan product was determined by measuring the absorption at 570 nm and subtracted from the absorbance at 660 nm.
(§3) The SH-SY5Y cells with a density of 10 000 cells (for HEK293 5000 cells) per well (total volume of 100 μL) were added to each well of a 96-well tissue culture plate (VWR North American) and incubated overnight at 37 °C with 5% CO2. […] Finally, the absorbance was measured at 570 and 660 nm using a CLARIO star plate reader (BMG labtech, Ortenberg, Germany), and the cell viability was calculated using eq 2: [drawing 2] […]

Aβ42 aggregates = test: sFIDA assay of Aβ42 aggregate elimination; format: biochemical; conditions: n = 3; for sFIDA signal reduction compared with the control: 50 nM peptide, 1 nM Aβ42 aggregates, overnight, room temperature, PBS, TIRFM pixel count
Experimental: To determine the influence of peptides on Aβ42 aggregates, an sFIDA assay was performed. The principle was previously described.[29] Therefore, we used pretreated 384 glass bottom microtiterplates (Sensoplate plus, Greiner Bio-One GmbH, Frickenhausen, Germany) to immobilize the capture-antibody Nab228 (Sigma-Aldrich, St. Louis, Missouri, USA) in a concentration of 2.5 μg/mL in 0.1 M carbonate buffer (Carl Roth, Karlsruhe, Germany). After an overnight incubation at 4 °C, the plate was washed five times with TBS and blocked with 80 μL of a 0.5% BSA solution in TBS with 0.03% ProClin 300 (Sigma-Aldrich, St. Louis, Mo, USA) for 1.5 h at room temperature.
The influence of 50 nM CDPs on 1 nM Aβ42 aggregates (prepared according to Ref ([70])) in PBS was determined by incubating them overnight at room temperature and 600 rpm. As a control, the same Aβ42 aggregates concentration was incubated without additions of peptides; instead, the buffer was added to contain the same end concentrations. The plate was washed as previously described, and 20 μL each of the peptide solution and a serial dilution of Aβ42 aggregates standards in PBS were added and incubated for 2 h at room temperature.
Afterward, 20 μL of 0.625 μg/mL IC-16 CF633 (Heinrich Heine Universität Düsseldorf, Germany) in TBS with 0.1% BSA was added to each well and incubated for 1 h at room temperature. This red fluorescently labeled detection antibody was labeled with CF633 succinimidyl ester (Sigma-Aldrich, St. Louis, Missouri, USA) after the manufacturer’s protocol. After a washing step to remove the redundant antibodies, 80 μL of TBS containing 0.03% Proclin were added.
By using a total internal reflection microscopy (TIRFM) (Leica Camera AG, Wetzlar, Germany), measurement (excitation: 635 nm, emission filter: 705/22 nm) was carried out with an oil immersion objective in 100× magnifications as previously described by Kass et al. 2022, and for each well, 25 of 14-bit grayscale images were measured with a size of 1000 × 1000 pixel each. […]

HEK293 cells = test: MTT cell viability assay, HEK293; format: cell-based, human; conditions: 20 and 40 μM peptide, overnight, n = 3
Experimental: as §1, §2, §3

Aβ42 oligomers = test: QIAD assay (Aβ42 aggregate size distribution, oligomer elimination); format: biochemical; conditions: 20 μM peptide added to 80 μM Aβ42 (pre-incubated 2 h), 30 min; density gradient, RP-HPLC UV 214 nm; n = 3
Experimental: In order to evaluate the efficacy of the peptides in eliminating Aβ42 oligomers, QIAD assays were performed.[39] Briefly, lyophilized Aβ42 (80 μM) was incubated for 2 h in sodium phosphate buffer for Aβ42 oligomerization. Then, each peptide (20 μM) was added to the Aβ42 solution and incubated for 30 min. Finally, samples were added on top of an iodixanol density gradient (5–50% (w/v) (OptiPrep, Sigma-Aldrich, Darmstadt, Germany) and centrifuged for 3 h at 4 °C and 259,000 x g (Optima TL-100, Beckman Coulter, Brea, CA, USA). For the sample analysis, 14 fractions (140 μL each) were collected from top to bottom. The top fractions, named fractions 1–2, contained Aβ42-monomers; fractions 4–6 contained the Aβ42-oligomers, which are of special interest; and the bottom fractions 11–14 contained high molecular weight of aggregated Aβ42. Each density gradient fraction was analyzed by Reversed Phase Liquid Chromatography. For this an Agilent 1260 Infinity II (Santa Clara, California, USA) system was equipped with an Agilent Zorbax SB-300 C-8 5 μm, 4.6 × 250 mm Column (Santa Clara, California, USA) and a multi-wavelength detector set to acquire the UV absorbance at 214 nm. H2O + 0.1% trifluoroacetic acid (AppliChem, Darmstadt, Germany) and acetonitrile (Roth, Karlsruhe, Germany) + 0.1% trifluoroacetic acid were used as eluent A and B, respectively. The acquisition method consisted of an initial isocratic step at 15% B, followed by a gradient from 15% B to 45% B in 10 min and another isocratic step at 45% B. The column temperature was set to 80 °C for the entire analysis. This method ensured full separation of the iodixanol density gradient medium and Aβ42 in all fractions. Aβ42 peaks were analyzed and integrated by the Agilent OpenLab 2.5 software. All measurements were performed in triplicate (n = 3), and data are presented as mean ± SM.

Aβ42 = target: T1, Aβ42 (Homo sapiens, UniProt P05067); test: Thioflavin T (ThT) assay of Aβ42 aggregation; format: biochemical; conditions: 28 μM peptide, 10 μM Aβ42, 5 μM ThT, 24 h, room temperature; mean of n = 3
T1 construct: purchased Bachem, Bubendorf, Switzerland
T1 sequence (P05067 672-713 limits assumed): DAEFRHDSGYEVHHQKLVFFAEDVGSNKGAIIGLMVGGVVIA
Experimental: To evaluate the ability of the peptides to prevent Aβ42 aggregation, a ThT assay was performed. Aβ42 (10 μM), ThT (5 μM), and the peptides (28 μM) were incubated in 96-well plates for 24 h at room temperature in a plate reader (Clariostar, BMG Labtech, Ortenberg, Germany). During this time, the ThT fluorescence was measured every 6 minutes with an excitation of 440 nm and emission of 490 nm. The data were corrected considering the blank wells (without Aβ42 and the peptides). None of the peptides interact with ThT alone or has autofluorescence properties. All measurements were performed in triplicate (n = 3), and data are presented as mean ± SM.
Different concentrations were titrated to investigate CDP-1 and -2 dose dependency on the Aβ42 aggregate formation, and a ThT assay was performed as described before. The effect of 0, 0.5, 1, 3, 6, 13, and 28 μM peptides was tested against 10 μM Aβ42 over 24 h. All experiments were performed in triplicate (n = 3), and data are presented as mean ± SM.

| SMILES | cytotoxicity in SH-SY5Y cells (SH-SY5Y cells) | sFIDA signal reduction compared with the control (Aβ42 aggregates) | cytotoxicity in HEK293 cells (HEK293 cells) | Aβ42 in QIAD fractions 4–5 (oligomers) (Aβ42 oligomers) | ThT signal / Aβ42 aggregation compared to Aβ42 alone (Aβ42) | sFIDA effect on Aβ42 aggregates (Aβ42 aggregates; Aβ42 aggregates treated with peptide, TIRFM) | Aβ42 in QIAD fraction 6 (oligomers) (Aβ42 oligomers) |
| --- | --- | --- | --- | --- | --- | --- | --- |
| COC(=O)[C@H](CCCCN)NC(=O)[C@H](CCCCN)NC(=O)[C@H](CS)NC(=O)[C@H](CS)NC(=O)[C@H](CCCCN)NC(=O)[C@H](Cc1c[nH]c2ccccc12)NC(=O)[C@H](CCCNC(=N)N)NC(=O)[C@H](Cc1c[nH]c2ccccc12)NC(=O)[C@H](CCCNC(=N)N)NC(=O)[C@H](CS)NC(=O)[C@H](CC(=O)O)NC(=O)[C@H](CCSC)NC(=O)[C@H](CCCCN)NC(C)=O [CDP-1] (Ac-KMDCRWRWKCCKK-OMe; C-terminus assumed) | nontoxic | 61.1% | nontoxic | not detected | no Aβ42 aggregation was determined |  |  |
| COC(=O)[C@@H](CCCCN)NC(=O)[C@@H](CCSC)NC(=O)[C@@H](CC(=O)O)NC(=O)[C@@H](CS)NC(=O)[C@@H](CCCNC(=N)N)NC(=O)[C@@H](Cc1c[nH]c2ccccc12)NC(=O)[C@@H](CCCNC(=N)N)NC(=O)[C@@H](Cc1c[nH]c2ccccc12)NC(=O)[C@@H](CCCCN)NC(=O)[C@@H](CS)NC(=O)[C@@H](CS)NC(=O)[C@@H](CCCCN)NC(=O)[C@@H](CCCCN)NC(C)=O [CDP-1D] (Ac-[dK][dK][dC][dC][dK][dW][dR][dW][dR][dC][dD][dM][dK]-OMe; N-terminus and C-terminus assumed) |  |  |  |  |  | decrease in aggregates | significant reduction |
| COC(=O)[C@H](CCCCN)NC(=O)[C@H](CCCCN)NC(=O)[C@H](CO)NC(=O)[C@H](CO)NC(=O)[C@H](CCCCN)NC(=O)[C@H](Cc1c[nH]c2ccccc12)NC(=O)[C@H](CCCNC(=N)N)NC(=O)[C@H](Cc1c[nH]c2ccccc12)NC(=O)[C@H](CCCNC(=N)N)NC(=O)[C@H](CO)NC(=O)[C@H](CC(=O)O)NC(=O)[C@H](CCSC)NC(=O)[C@H](CCCCN)NC(C)=O [CDP-2] (Ac-KMDSRWRWKSSKK-OMe) | nontoxic | 95.2% | nontoxic | not detected | four times smaller |  |  |
